Assay results as given in publication PMC7367873, “Dissecting the sequence determinants for dephosphorylation by the catalytic subunits of phosphatases PP1 and PP2A” (Nature Communications, 2020).

Experiments:
GFP-14-3-3β = GFP-14-3-3β co-IP with LC-MS/MS, untreated GFP-14-3-3β versus GFP control (14-3-3 interactome); format: binding, human
Protocol: (§1) HeLa Kyoto cells expressing transiently transfected pEGFP(C1)-14-3-3β or pEGFP(C1) control plasmid, were incubated with 20 nM Calyculin A (# 9902 S, Cell Signaling Technology) for 12 min. Cells were washed twice on ice with cold PBS and after addition of 500 µL lysis buffer (100 mM NaCl, 10 mM Tris, 0.1% IGEPAL, 1 mM EDTA, 1 mM EGTA, 20 nM Calyculin A, 1x cOmplete Mini protease inhibitor cocktail (Sigma), 1 mM DTT, 1 mM MnCl2) cells were scraped from plates, lysed by 10 pushes through an injection needle (21 G, BD) and the insoluble fraction was pelleted by centrifugation (10 min, 10^4 rcf, 4 °C). Supernatants were then subjected to incubation with 1 µM recombinant phosphatase or buffer for 1 h at 30 °C. Next, we subjected samples to immunoprecipitation using α-GFP nanobodies covalently coupled to agarose beads (2 h, 4 °C, obtained from the EMBL PEPcore Core Facility). Beads were then washed three times with lysis buffer and samples were eluted in 1x LDS sample buffer (Thermo Fisher Scientific) by heating to 70 °C for 10 min.
(§2) The samples were then reduced with 25 mM dithiothreitol (10 min at 70 °C) and alkylated with 55 mM chloroacetamide (room temperature, 30 min, in the dark). Proteins were run on a precast 4–12% NuPAGE gel (ThermoFisher Scientific) for about 1 cm to concentrate the sample prior to in-gel tryptic digestion, which was performed according to the standard procedures. The peptides obtained were dried to completeness and resuspended in 12 µL of buffer A (0.1% FA), and 5 µL of sample were injected per MS measurement. The experiment was carried out in three independent replicates.
(§3) The samples were analyzed by LC-MS/MS on a Dionex Ultimate 3000 nano-HPLC coupled online to a Fusion Lumos Tribrid mass spectrometer (Thermo Fisher Scientific). Peptides were delivered to a trap column (75 µm × 2 cm, packed in-house with 5 µm C18 resin; Reprosil PUR AQ, Dr. Maisch) and washed using 0.1% FA at a flow rate of 5 µL/min for 10 min. Subsequently, peptides were transferred to an analytical column (75 µm × 45 cm, packed in-house with 3 µm C18 resin; Reprosil Gold) applying a flow rate of 300 nL/min and separated using a 60 min linear gradient from 4% to 32% LC solvent B (0.1% FA, 5% DMSO in ACN) in LC solvent A (0.1% FA in 5% DMSO). The eluate from the analytical column was sprayed via a stainless steel emitter (Thermo Fisher Scientific) at a source voltage of 2.1 kV into the mass spectrometer. The transfer capillary was heated to 275 °C. The Fusion Lumos was operated in positive ionization mode and data-dependent acquisition (DDA), automatically switching between MS1 and MS2 spectrum acquisition. Full scan MS1 spectra were recorded in the Orbitrap from 360 to 1300 m/z at a resolution of 60k (automatic gain control (AGC) target value of 4e5 charges, maximum injection time (maxIT) of 50 ms). Up to 20 peptide precursors were isolated (isolation window, 1.7 m/z; maximum injection time, 25 ms; and AGC value, 1e5), fragmented by high-energy collision-induced dissociation (HCD) using 30% normalized collision energy (NCE), and analyzed at a resolution of 15k in the Orbitrap. Precursor ions that were singly charged, unassigned, or with charge states >6+ were excluded. The dynamic exclusion duration of fragmented precursor ions was 20 s.
(§4) Peptide and protein identification and LFQ were performed using MaxQuant software (version 1.6.1.0)[64] by searching the data against all canonical protein sequences as annotated in the Swissprot reference database (human proteins only, 20193 entries, downloaded 22 March 2016, internally annotated with PFAM domains) using the embedded search engine Andromeda[65]. The MaxQuant search was performed using two variable modifications; oxidation of methionine and N-terminal protein acetylation. Carbamidomethylation on cysteines was specified as a fixed modification. Trypsin (Trypsin/P) was specified as the proteolytic enzyme with up to two allowed missed cleavage sites.

[1] = system: GFP-14-3-3β and its binding proteins; experiment: GFP-14-3-3β co-IP with LC-MS/MS label-free quantification, untreated versus PP1c-treated; set-up: species or system human
Protocol: as §1, §2, §3, §4

[2] = untreated vs GFP, label-free quantification
[3] = PP1 vs untreated, label-free quantification
[4] = untreated vs GFP, LFQ intensities, replicates 1-3
[5] = PP1 vs untreated, LFQ intensities, replicates 1-3
[6] = pairwise comparison untreated vs GFP
[7] = pairwise comparison PP1 vs untreated
[8] = untreated vs GFP, LFQ intensities, 3 replicates each
[9] = PP1 vs untreated, LFQ intensities, 3 replicates each
[10] = pairwise comparison untreated GFP-14-3-3β vs GFP, student's t-test, 3 replicates each, LC-MS/MS label-free quantification
[11] = pairwise comparison PP1 vs untreated, student's t-test, 3 replicates each, LC-MS/MS label-free quantification
[12] = GFP-14-3-3β co-IP LC-MS/MS, untreated vs GFP, student's t-test, label-free quantification, 3 replicates each
[13] = GFP-14-3-3β co-IP LC-MS/MS, PP1 vs untreated, student's t-test, label-free quantification, 3 replicates each

## PHB2
GFP-14-3-3β; [2]
  Difference (log2), untreated vs GFP: 1.117 log2
[1]; [3]
  Difference (log2), PP1 vs untreated: 1.222 log2

## PPIA
GFP-14-3-3β; [4]
  Difference (log2), untreated vs GFP: -0.5989 log2
[1]; [5]
  Difference (log2), PP1 vs untreated: -2.011 log2

## XRCC6
GFP-14-3-3β; [6]
  Difference (log2), untreated vs GFP: -0.01757 log2
[1]; [7]
  Difference (log2), PP1 vs untreated: -0.1289 log2

## FAM98A
GFP-14-3-3β; [8]
  Difference (log2), untreated vs GFP: 0.9941 log2
[1]; [9]
  Difference (log2), PP1 vs untreated: 0.6235 log2

## HNRNPAB
GFP-14-3-3β; [8]
  Difference (log2), untreated vs GFP: 0.1502 log2
[1]; [9]
  Difference (log2), PP1 vs untreated: 0.4916 log2

## MAP7D1
GFP-14-3-3β; [2]
  Difference (log2), untreated vs GFP: 0.3595 log2
[1]; [3]
  Difference (log2), PP1 vs untreated: 0.8008 log2

## LARP4
GFP-14-3-3β; [2]
  Difference (log2), untreated vs GFP: -0.1959 log2
[1]; [3]
  Difference (log2), PP1 vs untreated: 0.983 log2

## GCN1L1
GFP-14-3-3β; [8]
  Difference (log2), untreated vs GFP: 0.08 log2
[1]; [9]
  Difference (log2), PP1 vs untreated: 0.3397 log2

## TECR
GFP-14-3-3β; [8]
  Difference (log2), untreated vs GFP: -0.1984 log2
[1]; [9]
  Difference (log2), PP1 vs untreated: 0.5371 log2

## SRGAP1
GFP-14-3-3β; [10]
  Difference (log2), untreated vs GFP: 5.319 log2
[1]; [11]
  Difference (log2), PP1 vs untreated: -5.178 log2

## PPL
GFP-14-3-3β; [4]
  Difference (log2), untreated vs GFP: -0.5694 log2
[1]; [5]
  Difference (log2), PP1 vs untreated: -1.031 log2

## FRYL
GFP-14-3-3β; [10]
  Difference (log2), untreated vs GFP: 5.1751 log2
[1]; [11]
  Difference (log2), PP1 vs untreated: -4.747 log2

## ABCF1
GFP-14-3-3β; [8]
  Difference (log2), untreated vs GFP: 1.553 log2
[1]; [9]
  Difference (log2), PP1 vs untreated: 0.4338 log2

## SMN1
GFP-14-3-3β; [12]
  Difference (log2), untreated vs GFP: 1.023 log2
[1]; [13]
  Difference (log2), PP1 vs untreated: -0.1766 log2

## BCLAF1
GFP-14-3-3β; [4]
  Difference (log2), untreated vs GFP: 1.7962 log2
[1]; [5]
  Difference (log2), PP1 vs untreated: -1.628 log2

## HSPB1
GFP-14-3-3β; [12]
  Difference (log2), untreated vs GFP: 0.3674 log2
[1]; [13]
  Difference (log2), PP1 vs untreated: -0.1455 log2

## MYH9
GFP-14-3-3β; [10]
  Difference (log2), untreated vs GFP: 0.3664 log2
[1]; [11]
  Difference (log2), PP1 vs untreated: -2.032 log2

## DHX9
GFP-14-3-3β; [12]
  Difference (log2), untreated vs GFP: 1.512 log2
[1]; [13]
  Difference (log2), PP1 vs untreated: -0.3598 log2

## WDR62
GFP-14-3-3β; [10]
  Difference (log2), untreated vs GFP: 4.129 log2
[1]; [11]
  Difference (log2), PP1 vs untreated: -3.602 log2

## PRKDC
GFP-14-3-3β; [6]
  Difference (log2), untreated vs GFP: -0.4154 log2
[1]; [7]
  Difference (log2), PP1 vs untreated: 0.07826 log2

## PRPF8
GFP-14-3-3β; [12]
  Difference (log2), untreated vs GFP: 2.212 log2
[1]; [13]
  Difference (log2), PP1 vs untreated: -0.1499 log2

## LGALS1
GFP-14-3-3β; [8]
  Difference (log2), untreated vs GFP: -0.7235 log2
[1]; [9]
  Difference (log2), PP1 vs untreated: 0.4051 log2

## AGO2
GFP-14-3-3β; [2]
  Difference (log2), untreated vs GFP: 0.05278 log2
[1]; [3]
  Difference (log2), PP1 vs untreated: 0.7956 log2

## LANCL1
GFP-14-3-3β; [4]
  Difference (log2), untreated vs GFP: -0.5316 log2
[1]; [5]
  Difference (log2), PP1 vs untreated: -1.493 log2

## KIAA1671
GFP-14-3-3β; [12]
  Difference (log2), untreated vs GFP: 1.934 log2
[1]; [13]
  Difference (log2), PP1 vs untreated: -0.2284 log2

## ZC3H4
GFP-14-3-3β; [6]
  Difference (log2), untreated vs GFP: 0.7684 log2
[1]; [7]
  Difference (log2), PP1 vs untreated: -0.1033 log2

## ASCC3
GFP-14-3-3β; [8]
  Difference (log2), untreated vs GFP: -0.1721 log2
[1]; [9]
  Difference (log2), PP1 vs untreated: 0.6228 log2

## PKM
GFP-14-3-3β; [4]
  Difference (log2), untreated vs GFP: 0.471 log2
[1]; [5]
  Difference (log2), PP1 vs untreated: -1.659 log2

## MYCBP2
GFP-14-3-3β; [10]
  Difference (log2), untreated vs GFP: 7.929 log2
[1]; [11]
  Difference (log2), PP1 vs untreated: -3.693 log2

## VDAC1
GFP-14-3-3β; [8]
  Difference (log2), untreated vs GFP: 1.0866 log2
[1]; [9]
  Difference (log2), PP1 vs untreated: 0.6266 log2

## DOCK11
GFP-14-3-3β; [4]
  Difference (log2), untreated vs GFP: 2.579 log2
[1]; [5]
  Difference (log2), PP1 vs untreated: -1.861 log2

## HSP90AB1
GFP-14-3-3β; [4]
  Difference (log2), untreated vs GFP: 0.1843 log2
[1]; [5]
  Difference (log2), PP1 vs untreated: -0.9521 log2

## PMS2
GFP-14-3-3β; [4]
  Difference (log2), untreated vs GFP: 0.6772 log2
[1]; [5]
  Difference (log2), PP1 vs untreated: -0.8647 log2

## SVIL
GFP-14-3-3β; [2]
  Difference (log2), untreated vs GFP: -1.069 log2
[1]; [3]
  Difference (log2), PP1 vs untreated: 0.892 log2
